Columns and labels:
[1] = system: Cnp-Cre Pex5^fl/fl Rag1^−/− mice; test: balanced beam test (motor coordination / walking ability); format: in vivo; conditions: 25 mg/kg oral gavage 6 out 7 days/week from age 6 weeks to month 6; vs H2O treated controls; significant from the age of 4 months
Method: Cnp-Cre Pex5^fl/fl Rag1^−/− mice received either H2O (Ctrl, n=18) or laquinimod (25 mg/kg, n=11) at 6 out 7 days/week by oral gavage. Treatment was initiated at the age of 6 weeks. Unpaired t test, **<0.01; ***<0.001. Cnp-Cre Pex5^fl/fl Rag1^−/− mice were generated by crossbreeding of Cnp-Cre Pex5^fl/fl mice with Rag1^−/− mice. Mice of both sexes received 25 mg/kg Laquinimod or water by oral gavage 6 out 7 days/week and treatment was initiated at the age of 6 weeks. Motor coordination was assessed with a balanced beam test. Mice were put on a beam (width 1.5 cm) and allowed to run toward a hiding box. After a training period, the time to pass a distance of 0.6 m was measured (three repeats per time point).

[2] = system: Cnp-Cre Pex5^fl/fl Rag1^−/− mice; test: histological and morphological analyses of the corpus callosum at month 6; format: in vivo; conditions: 25 mg/kg oral; for extent of demyelination / myelin loss in the corpus callosum: luxol fast blue, vs vehicle/water treated mice
Method: FIG. 2: Quantification of axonal damage (APP), microglia/macrophage cell numbers (Mac3), demyelination and adult oligodendrocytes (NogoA) in the corpus callosum (CC) of CNP-Cre Pex^fl/fl RAG1^−/− mice at the age of 6 months. Cnp-Cre Pex5^fl/fl Rag1^−/− mice were generated by crossbreeding of Cnp-Cre Pex5^fl/fl mice with Rag1^−/− mice. Mice of both sexes received 25 mg/kg Laquinimod or water by oral gavage 6 out 7 days/week and treatment was initiated at the age of 6 weeks. Mice were perfused transcardially at month 6 with cold PBS followed by 4% paraformaldehyde (PFA). Brains and spinal cords were post-fixed for 2 days and then paraffin-embedded. Sections between 0.5-1 μm were cut and processed for immunohistochemistry (IHC) according to standard protocols. Demyelination was evaluated on sections stained with luxol fast blue (LFB). For the staining of macrophages the antibody MAC387 (mouse anti-L1 antibody MAC387, GeneTex, 1:150) was used. Axonal density was evaluated on Bielschowsky silver stained sections. That is, in order to identify the mechanisms how laquinimod is beneficial in the CNP-Cre Pex^fl/fl RAG1^−/− mouse model, we analyzed and quantified the extent of demyelination, axonal damage and macrophage and adult oligodendrocyte numbers in immunohistochemically stained sections of the corpus callosum at month 6 in laquinimod and vehicle treated mice. […] The extent of demyelination was diminished and the numbers of preserved adult oligodendrocytes were increased, see FIG. 2.

[3] = system: microglia cells stimulated with 1 μg/ml LPS and 5 mM ATP; test: IL1β ELISA of supernatants of LPS/ATP stimulated microglia cells; format: cell-based; conditions: at high concentrations of laquinimod
Method: FIG. 3: Titration of laquinimod to microglia cells stimulated with 1 μg/ml LPS and 5 mM ATP. Microglia cell supernatants were analyzed for IL1β by ELISA.

[4] = system: Knockout mice (Cnp-Pex5, Cnp1-Cre*PEX5flox/flox, Pex5^flox/flox*Cnp-Cre/+, Nestin-Pex5, NEX-Pex5, GFAP-Pex5^−/−); test: effect of various doses of laquinimod on Pex5 knockout mice; format: in vivo
Method: Knockout mice of one or more of the following strains are used: Cnp-Pex5, Cnp1-Cre*PEX5flox/flox, Pex5^flox/flox*Cnp-Cre/+, Nestin-Pex5, NEX-Pex5, and GFAP-Pex5^−/−.
The effect of various doses of laquinimod on knockout mice is assessed.

[5] = system: Patients with leukodystrophy; test: trial of laquinimod in leukodystrophy human patients; format: in vivo; conditions: capsules orally once daily
Method: A trial is conducted to evaluate the safety, tolerability and clinical effect of laquinimod in leukodystrophy human patients. Patients with leukodystrophy are enrolled. The patient has been affirmatively diagnosed to have leukodystrophy. […] Capsule(s) containing laquinimod and/or matching placebo are administered orally once daily at dosages approved by the study Safety Committee. Patients are randomized into one of the treatment arms in a ratio that allows for reaching an overall target enrollment.

Patients with PBD = test: trial of laquinimod for PBD in human patients; format: in vivo
Method: A trial is conducted to evaluate the safety, tolerability and clinical effect of laquinimod for PBD in human patients. Patients with PBD are enrolled. The patient has been affirmatively diagnosed to have PBD. […] Capsule(s) containing laquinimod and/or matching placebo are administered orally once daily at dosages approved by the study Safety Committee. Patients are randomized into one of the treatment arms in a ratio that allows for reaching an overall target enrollment.

[6] = in vivo; cited from earlier work
[7] = system: multiple sclerosis (MS) patients; conditions: two phase III trials; cited from earlier work
cuprizone model = conditions: cited from earlier work
EAE model = conditions: cited from earlier work
[8] = age of 6 months, vs vehicle treated mice
[9] = capsules orally once daily, human patients

Compound: CCN(C(=O)c1c(O)c2c(Cl)cccc2n(C)c1=O)c1ccccc1 [laquinimod, 5-chloro-N-ethyl-4-hydroxy-1-methyl-2-oxo-N-phenyl-1,2-dihydroquinoline-3-carboxamide]
- walking ability / motor coordination on elevated beam test [1]: significantly better
- extent of demyelination / myelin loss in the corpus callosum ([2]; age of 6 months): less extensive
- extent of demyelination / myelin loss in the corpus callosum ([2]; age of 6 months, listed as Laquinimod): diminished
- axonal damage (APP positive axons) in the corpus callosum [2, 8]: significantly reduced
- microglia/macrophage cell numbers (Mac3) in the corpus callosum [2, 8]: significantly reduced
- numbers of preserved adult oligodendrocytes (NogoA) in the corpus callosum [2, 8]: increased
- microglia activation ([2]; vs water treated controls): reduced
- preservation of axons (axonal loss) ([2]; vs water treated controls): better preserved
- microglia activation ([2]; vs water treated controls, listed as Laquinimod): less abundant
- amount of IL1β in LPS stimulated microglia cell cultures [3]: significantly reduced
- accumulation of lipid droplets and VLCFA, depletion of plasmalogens, impairment of myelin, axonal degeneration, astrogliosis, and/or microgliosis [4]: reduces
- cognitive function [4]: improves
- hindlimb ataxia, kyphosis, hindlimb paresis, forelimb ataxia, tremor, hindlimb paralysis, and/or passiveness [4]: reduces
- motor function [4]: improves
- motor symptoms of leukodystrophy [5]: alleviates or eliminates
- one or more symptoms of leukodystrophy [5]: alleviates or eliminates
- motor symptoms of PBD (Patients with PBD; [9]): alleviates or eliminates
- one or more symptoms of PBD (Patients with PBD; [9]): alleviates or eliminates
- symptoms of Zellweger Syndrome (ZS) (Patients with PBD; humans, Example 3.1): alleviates or eliminates
- symptoms of Neonatal Adrenoleukodystrophy (NALD) (Patients with PBD; humans, Example 3.2): alleviates or eliminates
- symptoms of Infantile Refsum Disease (IRD) (Patients with PBD; humans, Example 3.3): alleviates or eliminates
- oral bioavailability [6]: high
- safety and tolerability profile [7]: favorable
- demyelination (cuprizone model): reduces
- microglia and astrocyte activation (cuprizone model): inhibits
- axonal injury (EAE model): reduces
- microglia and astrocyte activation (EAE model): inhibits
